Results on 28 molecules are retold here after patent US20220204510A1, “2,3-DIHYDRO-1H-PYRROLIZINE-7-FORMAMIDE DERIVATIVE AND APPLICATION THEREOF” (CHIA TAI TIANQING PHARMACEUTICAL GROUP CO., LTD., priority 2018, published 2022).

SMILES strings stand for the structures.

This test concerns HBV. Kind of test: qPCR test in the HBV in vitro test (HBV DNA in HepG2.2.15 cells). The format is cell-based. The note with it: Hepatitis B virus, 192 h, HBV DNA in HepG2.2.15 culture medium, day 8, read-out: Half maximal inhibitory concentration (EC50) of HBV. On the procedure: To evaluate the inhibitory effect of the compound on HBV by detecting content of HBV DNA in HepG2.2.15 cells in a real-time qPCR test, with EC50 of the compound as an indicator.
3.1. HepG2.2.15 cells (4×10^4 cells/well) were inoculated into a 96-well plate and cultured at 37° C. in 5% CO2 overnight. 3.2. On day 2, the compound was 3-fold diluted in gradient for a total of 8 dilution gradients. The compound at different concentrations was added into the culture wells in duplicate. The final concentration of DMSO in the culture medium was 1%. 1 μM GLS4 was used as a 100% inhibition control (the structure of GLS4 disclosed in WO2008154817A1 is as follows:
1% DMSO was used as a 0% inhibition control. 3.3. On day 5, the culture medium was replaced with a fresh culture medium containing the compound. 3.4. On day 8, the culture medium in the culture wells was collected, and the high-throughput DNA purification kit (Qiagen-51162) was used to extract DNA. For specific steps, refer to the product manual.
3.6. Each well of the 96-well PCR plate was added with 15 μL of the reaction mixture, and then with 10 μL of sample DNA or HBV DNA standard. 3.7. The reaction conditions for PCR: heating at 95° C. for 10 min, degeneration at 95° C. for 15 s, and extension at 60° C. for 1 min, with a total of 40 cycles.
3.8.1. Calculation of the inhibition percentage: % Inh.=[1−(DNA copy number in the sample−DNA copy number in 1 μM GLS4)/(DNA copy number in the DMSO control−DNA copy number in 1 μM GLS4)]×100. 3.8.2. Calculation of EC50: half maximal inhibitory concentration (EC50) of the compound for HBV was calculated using GraphPad Prism software. 3.8.3.
For orientation: In qPCR the cycle at which signal appears reflects the starting amount.

With `CC1(NC(=O)C(=O)c2cc(C(=O)Nc3ccc(F)c(F)c3)c3n2CCC3)CCOCC1` [Compound 1], the EC50 was 35 nM.

Take `Cc1c(C(=O)Nc2ccc(F)c(F)c2)c2n(c1C(=O)C(=O)NC1(C)CCOCC1)CCC2` [Compound 3]: the EC50 came out at 5 nM.

As for `CC1(NC(=O)C(=O)c2c(Cl)c(C(=O)Nc3ccc(F)c(F)c3)c3n2CCC3)CCN(CC(=O)O)CC1` [Compound 4], the EC50 is 580 nM.

As to `CC1(NC(=O)C(=O)c2c(Cl)c(C(=O)Nc3ccc(F)c(C#N)c3)c3n2CCC3)CCOCC1` [Compound 5], the EC50 is 7 nM.

`CC1(NC(=O)C(=O)c2cc(C(=O)Nc3ccc(F)c(F)c3)c3n2CCCC3)CCOCC1` [Compound 6]: the EC50 was 110 nM.

Take `CC1(NC(=O)C(=O)c2c(Cl)c(C(=O)Nc3ccnc(Cl)c3)c3n2CCC3)CCOCC1` [Compound 7]: the EC50 was 30 nM.

Take `CC1(NC(=O)C(=O)c2c(Br)c(C(=O)Nc3ccc(F)c(F)c3)c3n2CCC3)CCOCC1` [Compound 8]: the EC50 is 9 nM.

For the molecule `CC1(NC(=O)C(=O)c2c(C(F)(F)F)c(C(=O)Nc3ccc(F)c(F)c3)c3n2CCC3)CCOCC1` [Compound 9], the EC50 was 41 nM.

As to `CC1(NC(=O)C(=O)c2c(Cl)c(C(=O)Nc3cc(F)c(F)c(F)c3)c3n2CCC3)CCOCC1` [Compound 10], the EC50 is 2 nM.

For `COCC1(NC(=O)C(=O)c2c(Cl)c(C(=O)Nc3ccc(F)c(F)c3)c3n2CCC3)CCOCC1` [Compound 11], the EC50 came to 4 nM.

For the molecule `N#CC1(NC(=O)C(=O)c2c(Cl)c(C(=O)Nc3ccc(F)c(F)c3)c3n2CCC3)CCOCC1` [Compound 12], the EC50 is 5 nM.

For `CC1(NC(=O)C(=O)c2c(Cl)c(C(=O)Nc3ccc(F)c(F)c3)c3n2CCC3)CCC(CC(=O)O)CC1` (stereo not shown) [Compound 13], the EC50 came to 19 nM.

For `C[C@@H](NC(=O)C(=O)c1c(Cl)c(C(=O)Nc2ccnc(Cl)c2)c2n1CCC2)C(F)(F)F` [Compound 14], the EC50 turned out to be 70 nM.

`O=C(NC12CCC(C(=O)O)(CC1)CC2)C(=O)c1c(Cl)c(C(=O)Nc2ccc(F)c(F)c2)c2n1CCC2` [Compound 15]: the EC50 came out at 37 nM.

With `CC(C)(CCC(=O)O)NC(=O)C(=O)c1c(Cl)c(C(=O)Nc2ccc(F)c(F)c2)c2n1CCC2` [Compound 16], the EC50 was found to be 41 nM.

For `C[C@]1(NC(=O)C(=O)c2c(Cl)c(C(=O)Nc3ccc(F)c(F)c3)c3n2CCC3)CC[C@H](C(=O)O)CC1` [Compound 19], the EC50 was 20 nM.

On to `C[C@]1(NC(=O)C(=O)c2c(Cl)c(C(=O)Nc3ccc(F)c(F)c3)c3n2CCC3)CC[C@@H](C(=O)O)CC1` [Compound 20], for which the EC50 is 11 nM.

As for `C[C@]1(NC(=O)C(=O)c2c(Cl)c(C(=O)Nc3ccc(F)c(F)c3)c3n2CCC3)CC[C@@H](CCC(=O)O)CC1` [Compound 21], the EC50 was found to be 3 nM.

Turning to `C[C@]1(NC(=O)C(=O)c2c(Cl)c(C(=O)Nc3ccc(F)c(F)c3)c3n2CCC3)CC[C@H](CCC(=O)O)CC1` [Compound 22], the EC50 turned out to be 14 nM.

Take `CC(C)(CCCC(=O)O)NC(=O)C(=O)c1c(Cl)c(C(=O)Nc2ccc(F)c(F)c2)c2n1CCC2` [Compound 23]: the EC50 came out at 27 nM.

Consider `N#CC1(NC(=O)C(=O)c2c(Cl)c(C(=O)Nc3ccc(F)c(F)c3)c3n2CCC3)CCC(CC(=O)O)CC1` (stereo not shown) [Compound 24], for which the EC50 came out at 299 nM.

In the case of `CC(C)(C)OC(=O)C[C@H]1CC[C@](C)(NC(=O)C(=O)c2c(Cl)c(C(=O)Nc3cc(F)c(F)c(F)c3)c3n2CCC3)CC1` [Compound 25-3], the EC50 is 4 nM.

In the case of `N#CC1(NC(=O)C(=O)c2c(Cl)c(C(=O)Nc3cc(F)c(F)c(F)c3)c3n2CCC3)CCC(CC(=O)O)CC1` (stereo not shown) [Compound 26], the EC50 stood at 174 nM.

As to `CC(C)(CCCCC(=O)O)NC(=O)C(=O)c1c(Cl)c(C(=O)Nc2cc(F)c(F)c(F)c2)c2n1CCC2` [Compound 27], the EC50 was determined as 12 nM.

As to `O=C(O)CC1CCC(NC(=O)C(=O)c2c(Cl)c(C(=O)Nc3cc(F)c(F)c(F)c3)c3n2CCC3)(C(F)(F)F)CC1` (stereo not shown) [Compound 28], the EC50 was found to be 2 nM.

With `O=C(O)C[C@H]1CC[C@](NC(=O)C(=O)c2c(Cl)c(C(=O)Nc3cc(F)c(F)c(F)c3)c3n2CCC3)(C(F)(F)F)CC1` [Compound 29], the EC50 was determined as 3 nM.

Take `O=C(O)C[C@H]1CC[C@@](NC(=O)C(=O)c2c(Cl)c(C(=O)Nc3cc(F)c(F)c(F)c3)c3n2CCC3)(C(F)(F)F)CC1` [Compound 30]: the EC50 stood at 1 nM.

For the molecule `COC(=O)C[C@H]1CC[C@](C)(NC(=O)C(=O)c2c(Cl)c(C(=O)Nc3cc(F)c(F)c(F)c3)c3n2CCC3)CC1` [Compound 31], the EC50 was found to be 5 nM.
